Here are results for eight compounds from patent US9586959B2, “Substituted tricyclic heterocycles as histamine 4 receptor inhibitors” (C&C RESEARCH LABORATORIES, priority 2011, dated 2017).

SMILES strings stand for the structures.

Data set [1] deals with human histamine 3 receptor (hH3R) (Homo sapiens (Human), UniProt Q9Y5N1). As to the kind of experiment: Binding affinity of human histamine 3 receptor (hH3R), [3H] labeled N-α-methylhistamine displacement. To be noted: hH3R-overexpressed cell membrane, [3H] N-α-methylhistamine. In a few lines: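 Membranes from cells overexpressing hH3R (15 μg) were incubated with compound and [3H]N-α-methylhistamine (20 μM stock) in 50 mM Tris-HCl pH 7.4, 5 mM MgCl2 for 30 min at 27 °C. Bound radioligand was counted by scintillation after filtration; 200 μM (R)(−)-α-methylhistamine stock defined non-specific binding; IC50 derived.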
Chain of human histamine 3 receptor (hH3R) (Q9Y5N1 whole entry): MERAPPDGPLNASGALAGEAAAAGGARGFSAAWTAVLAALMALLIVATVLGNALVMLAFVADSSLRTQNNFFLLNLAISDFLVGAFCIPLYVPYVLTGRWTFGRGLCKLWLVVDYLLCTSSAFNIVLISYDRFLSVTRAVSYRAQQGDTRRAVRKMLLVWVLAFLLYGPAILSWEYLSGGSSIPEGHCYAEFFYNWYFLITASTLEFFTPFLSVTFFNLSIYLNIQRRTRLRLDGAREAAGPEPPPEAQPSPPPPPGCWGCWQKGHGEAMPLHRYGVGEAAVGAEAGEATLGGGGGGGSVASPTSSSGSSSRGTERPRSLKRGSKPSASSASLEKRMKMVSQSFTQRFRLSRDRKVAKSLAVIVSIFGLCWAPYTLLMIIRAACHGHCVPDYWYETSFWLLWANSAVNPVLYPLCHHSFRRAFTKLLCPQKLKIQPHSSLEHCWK

Data set [2] is described as follows: Metabolic stability in human microsome. To be noted: human microsome 1 mg/mL, 5 μM compound, 1 mM NADPH.
Data set [3] addresses human histamine 4 receptor (hH4R) (Homo sapiens (Human), UniProt Q9H3N8). As to the kind of experiment: Binding affinity of human histamine 4 receptor (hH4R), [3H] labeled histamine displacement. The conditions noted are these: hH4R-overexpressed cell membrane, [3H] histamine. How it is done: 20 μL of the prepared compound solution was transferred to each well of a 96-well plate, and then 20 μL of 100 μM histamine diluted with analysis buffer solution and 1% DMSO were transferred to each well to calculate non-specific binding and total binding degree. 25 μg of human histamine 4 receptor-overexpressed cell membrane (PerkinElmer) was diluted into 160 μL of analysis buffer solution and that was transferred to each well. [^3H] labeled histamine (PerkinElmer) was diluted into 1 μM concentration, 20 μL was allocated in each well, and then it was kept in a 27° C. incubator for 30 minutes. After the reaction, 200 μL of the mixture was transferred to a glass fiber plate in which 0.5% polyethylene amine was presoaked, and then non-binding [^3H] labeled histamine was removed in vacuum. After 4 times washing with 200 μL of washing buffer solution (50 mM tris-HCl, pH 7.4), the plate was dried in a 37° C. oven for 18 hours. 100 μL of betascint cocktail solution was added to each well, and after 1 hour CPM (count per minute) value of [^3H] labeled histamine was measured by using Wallac beta-counter TriLux.

A short description of data set [4]: Metabolic stability in mouse microsome. To be noted: mouse microsome 1 mg/mL, 5 μM compound, 1 mM NADPH.

Chain of human histamine 4 receptor (hH4R) (Q9H3N8 whole entry): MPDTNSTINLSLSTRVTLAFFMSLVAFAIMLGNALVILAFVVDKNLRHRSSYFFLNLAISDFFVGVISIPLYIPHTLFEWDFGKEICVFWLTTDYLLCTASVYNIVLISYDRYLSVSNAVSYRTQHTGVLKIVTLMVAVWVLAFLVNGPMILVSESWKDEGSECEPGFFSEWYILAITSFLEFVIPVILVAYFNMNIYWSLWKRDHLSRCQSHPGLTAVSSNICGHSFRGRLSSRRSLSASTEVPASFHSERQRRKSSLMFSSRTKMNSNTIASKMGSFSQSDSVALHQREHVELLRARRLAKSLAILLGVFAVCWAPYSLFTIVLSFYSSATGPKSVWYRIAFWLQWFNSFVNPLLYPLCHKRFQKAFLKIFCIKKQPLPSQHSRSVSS

What is called IC50 is the concentration needed to halve the response being measured. A lower IC50 goes with inhibition by little substance. On to `CNC1CN(c2nc3ncc(Br)c(C)c3n3cnnc23)C1` [Compound 65, 1-(8-Bromo-9-methylpyrido[2,3-e][1,2,4]triazolo[4,3-a]pyrazin-4-yl)-N-methylazetidin-3-amine], for which the IC50 in data set [1] is greater than 100000 nM; in data set [3], 730 nM. Also, the “Metabolic stability (CLh. int), Human” value in data set [2] stood at 3210 µL/min/mg. In addition, in data set [4], the “Metabolic stability (CLh. int), Mouse” value came to 6490 µL/min/mg.
The corresponding values for `CN1CCN(c2nc3nc(Cl)c(Cl)cc3n3cnnc23)CC1` [Compound 17, 7,8-Dichloro-4-(4-methylpiperazin-1-yl)pyrido[2,3-e][1,2,4]triazolo[4,3-a]pyrazine] are greater than 100000 nM, 177 nM, 5880 µL/min/mg and 17130 µL/min/mg.
As for `Clc1cnc2nc(N3C[C@@H]4C[C@H]3CN4)c3nncn3c2c1` [Compound 77, 4-((1S,4S)-2,5-diazabicyclo[2.2.1]heptan-2-yl)-8-chloropyrido[2,3-e][1,2,4]triazolo[4,3-a]pyrazine], the IC50 in data set [1] is greater than 100000 nM; in data set [3], 490 nM. The “Metabolic stability (CLh. int), Human” value in data set [2] was determined as 1330 µL/min/mg. The “Metabolic stability (CLh. int), Mouse” value in data set [4] was 320 µL/min/mg.
As for `Clc1cnc2nc(N3CCNCC3)n3nc(C4CC4)nc3c2c1` [Compound 39, 9-Chloro-2-cyclopropyl-5-(piperazin-1-yl)pyrido[3,2-e][1,2,4]triazolo[1,5-c]pyrimidine], the IC50 in data set [1] is greater than 100000 nM; in data set [3], 130 nM. In addition, the “Metabolic stability (CLh. int), Human” value in data set [2] came to 2840 µL/min/mg. Further, the “Metabolic stability (CLh. int), Mouse” value in data set [4] is 5090 µL/min/mg.
As for `CN1C[C@@H]2C[C@H]1CN2c1nc2ncc(Cl)cc2n2cnnc12` [Compound 78, 8-Chloro-4-((1S,4S)-5-methyl-2,5-diazabicyclo[2.2.1]heptan-2-yl)pyrido[2,3-e][1,2,4]triazolo[4,3-a]pyrazine], the figures for the IC50 in data set [1] and in data set [3] were greater than 100000 nM and 430 nM, respectively. Also, the “Metabolic stability (CLh. int), Human” value in data set [2] came out at 2360 µL/min/mg. Further, the “Metabolic stability (CLh. int), Mouse” value in data set [4] worked out at 1460 µL/min/mg.
Consider `CNC1CN(c2nc3ncc(Br)cc3n3ccnc23)C1` [Compound 89, 1-(8-Bromoimidazo[1,2-a]pyrido[2,3-e]pyrazin-4-yl)-N-methylazetidin-3-amine], for which the IC50 in data set [1] was greater than 100000 nM; in data set [3], 360 nM. Besides, in data set [2], the “Metabolic stability (CLh. int), Human” value was found to be 3190 µL/min/mg. Moreover, the “Metabolic stability (CLh. int), Mouse” value in data set [4] turned out to be 10710 µL/min/mg.
With `CNC1CN(c2nc3ncc(OC)cc3n3cnnc23)C1` [Compound 58, 1-(8-Methoxypyrido[2,3-e][1,2,4]triazolo[4,3-a]pyrazin-4-yl)-N-methylazetidin-3-amine], the IC50 in data set [1] is greater than 100000 nM; in data set [3], 210 nM. In data set [2], the “Metabolic stability (CLh. int), Human” value stood at 2800 µL/min/mg. For the same compound, the “Metabolic stability (CLh. int), Mouse” value in data set [4] worked out at 12740 µL/min/mg.
For `Clc1cc2c(nc1Cl)nc(N1CCNCC1)c1nncn12` [Compound 62, 7,8-Dichloro-4-(piperazin-1-yl)pyrido[2,3-e][1,2,4]triazolo[4,3-a]pyrazine], the figures for the IC50 in data set [1] and in data set [3] were greater than 100000 nM and 510 nM, respectively. Further, the “Metabolic stability (CLh. int), Human” value in data set [2] came out at 4170 µL/min/mg. Further, the “Metabolic stability (CLh. int), Mouse” value in data set [4] worked out at 7980 µL/min/mg.
